# Assay results published in ChEMBL document CHEMBL1142534, “Design, synthesis, biological evaluation and pharmacokinetics of bis(hydroxyphenyl) substituted azoles, thiophenes, benzenes, and aza-benzenes as potent and selective nonsteroidal inhibitors of 17beta-hydroxysteroid dehydrogenase type 1 (17beta-HSD1)” (J Med Chem, 2008).
# pIC50: −log10 of the molar value. Active and inactive are the calls of the source. The rule behind the calls is not given here.
# Columns and labels:
# [1] = molecular target: T1, Estrogen receptor (Homo sapiens) (UniProt P03372); assay: Displacement of [2,4,6,7-3H]17beta-estradiol from human recombinant ERalpha receptor relative to 17-beta-estradiol
# T1 sequence (whole entry): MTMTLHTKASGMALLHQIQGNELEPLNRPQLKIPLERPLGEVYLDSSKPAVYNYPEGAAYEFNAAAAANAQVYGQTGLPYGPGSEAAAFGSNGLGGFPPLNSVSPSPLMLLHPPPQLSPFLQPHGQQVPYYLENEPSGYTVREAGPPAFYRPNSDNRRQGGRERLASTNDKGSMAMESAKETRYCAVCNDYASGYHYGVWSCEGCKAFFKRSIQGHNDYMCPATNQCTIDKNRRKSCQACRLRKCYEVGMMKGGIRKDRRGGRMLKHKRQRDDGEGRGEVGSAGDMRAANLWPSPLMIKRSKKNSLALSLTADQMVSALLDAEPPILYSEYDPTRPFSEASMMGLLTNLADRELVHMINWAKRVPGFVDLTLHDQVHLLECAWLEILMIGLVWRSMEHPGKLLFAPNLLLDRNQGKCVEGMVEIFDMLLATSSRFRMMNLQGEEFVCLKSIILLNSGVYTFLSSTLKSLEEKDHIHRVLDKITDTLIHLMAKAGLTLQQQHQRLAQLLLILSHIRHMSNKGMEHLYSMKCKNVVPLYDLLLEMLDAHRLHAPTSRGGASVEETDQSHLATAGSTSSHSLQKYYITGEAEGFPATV
# [2] = molecular target: Estrogen receptor beta (Homo sapiens) (UniProt Q92731); assay: Displacement of [2,4,6,7-3H]17beta-estradiol from human recombinant ERbeta receptor relative to 17-beta-estradiol
# Sequence of Estrogen receptor beta (Homo sapiens) (Q92731 whole entry): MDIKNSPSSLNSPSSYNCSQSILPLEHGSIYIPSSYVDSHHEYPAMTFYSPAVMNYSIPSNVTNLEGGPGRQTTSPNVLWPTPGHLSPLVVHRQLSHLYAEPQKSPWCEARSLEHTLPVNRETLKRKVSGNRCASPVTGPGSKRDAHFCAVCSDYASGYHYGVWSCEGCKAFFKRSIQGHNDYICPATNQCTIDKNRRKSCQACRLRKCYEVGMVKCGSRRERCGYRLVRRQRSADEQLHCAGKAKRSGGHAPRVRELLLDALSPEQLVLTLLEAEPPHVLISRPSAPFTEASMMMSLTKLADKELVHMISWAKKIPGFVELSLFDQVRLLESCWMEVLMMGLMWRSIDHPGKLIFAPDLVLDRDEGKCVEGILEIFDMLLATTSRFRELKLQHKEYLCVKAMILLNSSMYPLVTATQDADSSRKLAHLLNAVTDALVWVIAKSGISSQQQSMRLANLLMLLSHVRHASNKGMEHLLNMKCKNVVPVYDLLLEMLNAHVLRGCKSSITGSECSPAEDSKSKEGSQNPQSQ
# [3] = molecular target: T2, 17-beta-hydroxysteroid dehydrogenase type 1 (Homo sapiens) (UniProt P14061); assay: (§1) Inhibition of human placental cytosolic 17beta-HSD1
# T2 sequence (whole entry): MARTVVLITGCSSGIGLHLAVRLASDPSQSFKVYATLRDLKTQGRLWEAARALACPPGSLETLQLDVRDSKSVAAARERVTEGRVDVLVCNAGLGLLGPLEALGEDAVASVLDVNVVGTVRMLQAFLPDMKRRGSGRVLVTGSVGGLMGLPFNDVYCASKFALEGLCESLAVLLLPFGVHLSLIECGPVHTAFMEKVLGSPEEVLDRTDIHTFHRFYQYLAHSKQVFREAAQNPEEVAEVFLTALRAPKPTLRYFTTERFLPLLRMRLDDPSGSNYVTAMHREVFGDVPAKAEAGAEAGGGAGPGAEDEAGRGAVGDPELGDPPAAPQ
# [4] = molecular target: T3, 17-beta-hydroxysteroid dehydrogenase type 1 (Homo sapiens, UniProt P14061); assay: as §1
# T3 sequence (P14061 whole entry): T2 sequence (whole entry)
# [5] = Cmax in Wistar rat at 10 mg/kg, po by cassette dosing; type: ADME, organism-based; set-up: dose 10 mg/kg, route oral; conditions: in vivo
# Rattus norvegicus [6] = assay: Clast in Wistar rat at 10 mg/kg, po by cassette dosing; type: ADME, organism-based; set-up: dose 10 mg/kg, route oral; conditions: in vivo
# [7] = Tmax in Wistar rat at 10 mg/kg, po by cassette dosing; type: ADME, organism-based; set-up: dose 10 mg/kg, route oral; conditions: in vivo
# Rattus norvegicus [8] = assay: Tlast in Wistar rat at 10 mg/kg, po by cassette dosing; type: ADME, organism-based; set-up: dose 10 mg/kg, route oral; conditions: in vivo
# [9] = Half life in Wistar rat at 10 mg/kg, po by cassette dosing; type: ADME, organism-based; set-up: dose 10 mg/kg, route oral; conditions: in vivo, read-out: beta t1/2 (converted)
# Rattus norvegicus [10] = assay: AUC (0 to Tlast) life in Wistar rat at 10 mg/kg, po by cassette dosing; type: ADME, organism-based, Plasma; set-up: dose 10 mg/kg, route oral; conditions: in vivo
# in vitro [11] = conditions: human, Caco-2
# Description: Apparent permeability across human Caco-2 cells at 50 uM
# T47D = assay: Estrogenic activity in human ER expressing T47D cells assessed as stimulation of cell proliferation at 100 nM by MTT assay; type: functional, cell-based
# Cytochrome P450 1A2 = molecular target: T4, Cytochrome P450 1A2 (Homo sapiens, UniProt P05177); assay: Inhibition of human hepatic CYP1A2; type: ADME
# T4 sequence (P05177 whole entry): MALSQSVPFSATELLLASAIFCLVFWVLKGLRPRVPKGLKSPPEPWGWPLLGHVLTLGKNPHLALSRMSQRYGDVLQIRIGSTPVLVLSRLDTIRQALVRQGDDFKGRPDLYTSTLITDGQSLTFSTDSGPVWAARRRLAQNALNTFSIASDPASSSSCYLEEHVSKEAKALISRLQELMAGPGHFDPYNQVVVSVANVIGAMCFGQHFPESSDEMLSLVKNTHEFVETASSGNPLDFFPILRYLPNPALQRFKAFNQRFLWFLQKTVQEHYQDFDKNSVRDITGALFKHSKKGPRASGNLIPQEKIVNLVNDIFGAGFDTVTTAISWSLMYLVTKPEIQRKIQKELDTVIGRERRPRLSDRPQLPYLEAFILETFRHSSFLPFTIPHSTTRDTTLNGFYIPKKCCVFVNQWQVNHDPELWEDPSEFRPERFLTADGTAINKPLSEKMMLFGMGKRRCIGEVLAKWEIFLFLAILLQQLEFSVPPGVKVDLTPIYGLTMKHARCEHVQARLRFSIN
# Cytochrome P450 2B6 = molecular target: T5, Cytochrome P450 2B6 (Homo sapiens, UniProt P20813); assay: Inhibition of human hepatic CYP2B6; type: ADME
# T5 sequence (P20813 whole entry): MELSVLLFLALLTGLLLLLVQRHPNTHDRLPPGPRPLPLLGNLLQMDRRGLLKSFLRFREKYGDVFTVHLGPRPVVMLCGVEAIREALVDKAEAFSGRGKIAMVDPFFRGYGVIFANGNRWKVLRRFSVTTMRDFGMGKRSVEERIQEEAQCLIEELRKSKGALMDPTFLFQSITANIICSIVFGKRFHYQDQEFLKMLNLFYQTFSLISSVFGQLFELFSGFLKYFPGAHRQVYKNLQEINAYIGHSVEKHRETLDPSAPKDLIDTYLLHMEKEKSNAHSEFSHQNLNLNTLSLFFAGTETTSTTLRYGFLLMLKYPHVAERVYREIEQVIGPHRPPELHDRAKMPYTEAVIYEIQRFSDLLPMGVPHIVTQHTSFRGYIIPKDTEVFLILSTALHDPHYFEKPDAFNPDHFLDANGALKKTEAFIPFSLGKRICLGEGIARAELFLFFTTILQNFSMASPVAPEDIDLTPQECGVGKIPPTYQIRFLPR
# Cytochrome P450 2C19 = Cytochrome P450 2C19 (Homo sapiens, UniProt P33261); assay: Inhibition of human hepatic CYP2C19; type: ADME
# Sequence of Cytochrome P450 2C19 (P33261 whole entry): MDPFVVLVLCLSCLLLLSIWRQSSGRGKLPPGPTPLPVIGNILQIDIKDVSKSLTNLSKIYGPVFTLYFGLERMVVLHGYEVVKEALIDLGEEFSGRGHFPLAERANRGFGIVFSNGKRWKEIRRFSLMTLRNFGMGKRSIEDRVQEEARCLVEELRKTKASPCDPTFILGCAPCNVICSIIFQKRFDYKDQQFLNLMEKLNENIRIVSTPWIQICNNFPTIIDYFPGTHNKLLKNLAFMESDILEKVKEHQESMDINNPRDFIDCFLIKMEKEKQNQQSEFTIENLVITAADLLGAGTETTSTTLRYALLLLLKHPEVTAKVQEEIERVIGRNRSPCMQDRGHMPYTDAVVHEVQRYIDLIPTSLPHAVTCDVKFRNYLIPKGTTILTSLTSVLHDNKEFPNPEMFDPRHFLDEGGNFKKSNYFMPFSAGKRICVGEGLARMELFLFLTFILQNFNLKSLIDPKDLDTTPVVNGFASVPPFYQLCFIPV
# Cytochrome P450 2D6 = Cytochrome P450 2D6 (Homo sapiens, UniProt P10635); assay: Inhibition of human hepatic CYP2D6; type: ADME
# Sequence of Cytochrome P450 2D6 (P10635 whole entry): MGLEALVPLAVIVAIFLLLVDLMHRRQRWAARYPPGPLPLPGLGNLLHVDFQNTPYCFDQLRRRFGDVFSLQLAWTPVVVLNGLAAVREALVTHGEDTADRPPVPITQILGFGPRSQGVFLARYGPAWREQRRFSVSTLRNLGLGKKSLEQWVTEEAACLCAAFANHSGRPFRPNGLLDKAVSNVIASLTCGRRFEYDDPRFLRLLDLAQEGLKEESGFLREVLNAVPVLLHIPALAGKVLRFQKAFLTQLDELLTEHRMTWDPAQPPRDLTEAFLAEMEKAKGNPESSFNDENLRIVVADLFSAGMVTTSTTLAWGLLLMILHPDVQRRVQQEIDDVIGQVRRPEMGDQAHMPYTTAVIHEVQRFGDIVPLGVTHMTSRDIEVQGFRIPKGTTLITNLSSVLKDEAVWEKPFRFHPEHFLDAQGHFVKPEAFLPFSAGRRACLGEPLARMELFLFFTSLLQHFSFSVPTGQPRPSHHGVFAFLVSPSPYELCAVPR
# Cytochrome P450 3A4 = Cytochrome P450 3A4 (Homo sapiens, UniProt P08684); assay: Inhibition of human hepatic CYP3A4
# Sequence of Cytochrome P450 3A4 (P08684 whole entry): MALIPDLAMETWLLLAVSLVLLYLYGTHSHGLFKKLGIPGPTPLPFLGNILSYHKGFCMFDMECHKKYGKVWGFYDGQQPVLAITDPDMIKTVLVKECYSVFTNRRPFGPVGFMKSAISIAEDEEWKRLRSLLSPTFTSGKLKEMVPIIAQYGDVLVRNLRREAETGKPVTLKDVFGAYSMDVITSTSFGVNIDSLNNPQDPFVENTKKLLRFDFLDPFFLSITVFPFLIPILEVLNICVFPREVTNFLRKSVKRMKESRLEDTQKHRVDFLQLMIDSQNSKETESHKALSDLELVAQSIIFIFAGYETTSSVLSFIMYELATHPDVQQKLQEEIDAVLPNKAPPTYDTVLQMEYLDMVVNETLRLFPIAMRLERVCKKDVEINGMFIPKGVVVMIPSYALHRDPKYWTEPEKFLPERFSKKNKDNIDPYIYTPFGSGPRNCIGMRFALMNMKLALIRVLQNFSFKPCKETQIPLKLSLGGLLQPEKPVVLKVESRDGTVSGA
# in vitro [12] = conditions: Sprague-Dawley, rat, liver microsomes
# in vitro [13] = conditions: Sprague-Dawley, rat, liver microsomes; remark: listed apart in the source
compound,measurement,setting,value
Oc1cccc(-c2ccc(-c3cccc(O)c3)nc2)c1,RBA,[1],0.01%
same,RBA,[2],< 0.01%
Oc1ccc(-c2ccc(-c3ccccc3)s2)cc1,Activity,[3],inactive
Oc1ccc(-c2ccsc2-c2ccc(O)cc2)cc1,Activity,[3],inactive
Oc1ccc(-c2ccc(-c3ccc(O)cc3)[se]2)cc1,Activity,[3],inactive
Cn1nc(-c2cccc(O)c2)nc1-c1cccc(O)c1,Activity,[3],inactive
Oc1ccc(-c2csc(-c3cccc(O)c3)n2)cc1,pIC50,[4],< 6.00
Oc1ccc(-c2csc(-c3ccc(O)cc3)c2)cc1,Activity,[3],inactive
Cn1nc(-c2ccc(O)cc2)nc1-c1cccc(O)c1,Activity,[3],inactive
Oc1ccc(-c2cnc(-c3cccc(O)c3)s2)cc1,RBA,[1],< 0.01%
same,RBA,[2],0.01%
same,Cmax,[5],7.8 ng/mL
same,Cz,Rattus norvegicus [6],6.6 ng/mL
same,Tmax,[7],8 h
same,tz,Rattus norvegicus [8],10 h
same,half-life,[9],1.5 h
same,AUC,Rattus norvegicus [10],99.2 ng·h/mL
same,Papp at 50 µM,in vitro [11],7.8 ×10⁻⁶ cm/s
Oc1ccc(-c2ccc(-c3ccc(O)cc3)s2)cc1,Activity,[3],inactive
Oc1cccc(-c2cn(-c3cccc(O)c3)nn2)c1,pIC50,[4],< 5.30
Cn1nc(-c2ccc(O)cc2)nc1-c1ccc(O)cc1,Activity,[3],inactive
Oc1ccc(-c2cnc(-c3cccc(O)c3)[nH]2)cc1,Activity,[3],inactive
Oc1cccc(-c2csc(-c3cccc(O)c3)c2)c1,pIC50,[4],6.73
Oc1ccc(-c2csc(-c3cccc(O)c3)c2)cc1,pIC50,[4],7.11
same,RBA,[1],0.01%
same,RBA,[2],0.1%
Oc1cccc(-c2ccc(-c3cccc(O)c3)s2)c1,pIC50,[4],6.76
Oc1cccc(-c2nnc(-c3cccc(O)c3)nn2)c1,Cmax,[5],106 ng/mL
same,Cz,Rattus norvegicus [6],54 ng/mL
same,Tmax,[7],3 h
same,tz,Rattus norvegicus [8],10 h
same,half-life,[9],1.2 h
same,AUC,Rattus norvegicus [10],1200 ng·h/mL
Oc1ccc(-c2nc(-c3cccc(O)c3)cs2)cc1,pIC50,[4],< 5.30
Oc1ccc(-c2ccc(-c3cccc(O)c3)s2)cc1,pIC50,[4],7.16
same,Activity,T47D,inactive
same,Papp at 50 µM,in vitro [11],22 ×10⁻⁶ cm/s
Oc1cccc(-c2cccs2)c1,Activity,[3],inactive
Oc1cccc(-c2ccc(-c3cccc(O)c3)[se]2)c1,Activity,[3],inactive
c1ccc(-c2ccc(-c3ccccc3)s2)cc1,Activity,[3],inactive
Oc1cccc(-c2cc(-c3ccccc3)cs2)c1,pIC50,[4],< 5.30
Oc1ccc(-c2cccc(-c3cccc(O)c3)c2)cc1,pIC50,[4],< 6.00
Cn1nc(-c2cccc(O)c2)nc1-c1ccc(O)cc1,Activity,[3],inactive
Oc1ccc(-c2cccc(-c3ccc(O)cc3)c2)cc1,pIC50,[4],< 6.00
Oc1ccc(-c2ccc(-c3cccc(O)c3)cc2)cc1,pIC50,[4],6.33
same,Activity,T47D,inactive
Oc1ccc(-c2nsc(-c3cccc(O)c3)n2)cc1,pIC50,[4],6.38
same,Activity,T47D,inactive
Oc1ccc(-c2ccsc2-c2cccc(O)c2)cc1,pIC50,[4],< 6.00
Oc1cccc(-c2csc(-c3cccc(O)c3)n2)c1,pIC50,[4],6.34
Oc1ccc(-c2cc(-c3cccc(O)c3)cs2)cc1,pIC50,[4],6.82
same,RBA,[1],0.01%
same,RBA,[2],0.1%
same,Activity,T47D,inactive
same,pIC50,Cytochrome P450 1A2,< 5.40
same,pIC50,Cytochrome P450 2B6,< 5.40
same,pIC50,Cytochrome P450 2C19,< 5.40
same,pIC50,Cytochrome P450 2D6,< 5.40
same,pIC50,Cytochrome P450 3A4,5.72
same,Papp at 50 µM,in vitro [11],14.4 ×10⁻⁶ cm/s
same,half-life at 1 µM,in vitro [12],0.31 h
same,microsomal CLint at 1 µM,in vitro [13],248 µL/min/mg
Oc1ccc(-c2ncc(-c3cccc(O)c3)s2)cc1,pIC50,[4],< 6.00
Oc1ccc(-c2cnc(-c3ccc(O)cc3)s2)cc1,Activity,[3],inactive
Oc1cccc(-c2cnc(-c3cccc(O)c3)s2)c1,pIC50,[4],6.61
same,Activity,T47D,inactive
same,pIC50,Cytochrome P450 1A2,< 5.40
same,pIC50,Cytochrome P450 2B6,< 5.40
same,pIC50,Cytochrome P450 2C19,< 5.40
same,pIC50,Cytochrome P450 2D6,< 5.40
same,half-life at 1 µM,in vitro [12],0.21 h
same,microsomal CLint at 1 µM,in vitro [13],367 µL/min/mg
Oc1cccc(-c2nsc(-c3cccc(O)c3)n2)c1,pIC50,[4],6.77
Oc1cccc(-c2nnc(-c3cccc(O)c3)s2)c1,pIC50,[4],6.47
Oc1ccc(-c2csc(-c3ccc(O)cc3)n2)cc1,Activity,[3],inactive
